Results on six substances are retold here after paper PMC3608651, “A Broad Profile of Co-Dominant Epitopes Shapes the Peripheral Mycobacterium tuberculosis Specific CD8+ T-Cell Immune Response in South African Patients with Active Tuberculosis” (PLoS ONE, 2013).

Assay type in all cases: binding
In one assay the target is HLA-A*02:01 (Homo sapiens, UniProt P04439, D140Y/D185E/D98H/E176V/E277Q/G131W/G231S/I119V/I121R/I166T/I218V/L300P/L318F/N151K/N90K/P208A/P217A/Q86G/Q94H/R138H/R169H/T345S). The settings on record: plate-bound monomer 0.5 µg/ml, duplicated experiments, positive binder >40%.
A further assay concerns the target HLA-A*24:02 (Homo sapiens, UniProt P04439, D101N/D140Y/D185E/E176V/E190D/F33S/G103R/G107R/I119L/I121M/I306V/K335N/L105A/L180Q/L300P/N151K/N90K/Q86E/Q94H/R106L/R138H/R89G/T104I/T345S/V100E/W191G/Y123F). The settings on record: duplicated experiments, positive binder >40%.
The target of another assay is HLA-A*30:01 (Homo sapiens, UniProt P04439, D140H/D185E/E176W/F33S/G80R/H175R/K168Q/R138E/R41S). The settings on record: duplicated experiments, positive binder >40%.
In assay [1] the target is T1, HLA-A*30:02 (Homo sapiens, UniProt P04439, D101N/D140H/D185E/E176R/F33S/G80R/H175R/K168Q/Q94H/R138E/R41S/V100E). The note with it: duplicated experiments, positive binder >40%.
Assay [2] deals with T1, HLA-A*30:02.
The target of assay [3] is T1, HLA-A*30:02. The note with it: time points 0-8 h.
The target of assay [4] is T2, HLA-A*68:01 (Homo sapiens, UniProt P04439, A269V/D185E/E176V/E277Q/E87N/F33Y/G231S/I121M/I166T/I218V/L180W/L300P/L318F/N151K/P208A/P217A/Q86R/R169H/T345S). The note with it: duplicated experiments, positive binder >40%.
Assay [5] deals with T2, HLA-A*68:01.
Assay [6] deals with T2, HLA-A*68:01. The settings on record: time points 0-8 h.
The next assay concerns the target HLA-B*07:02 (Homo sapiens, UniProt P01889). The settings on record: percent relative the binding of positive control peptide […]; duplicated experiments; positive binder >40%.
The target in assay [7] is T3, HLA-B*58:01 (Homo sapiens, UniProt P01889, A329T/C349S/D201E/D98Y/E176V/E187L/E204Q/E69T/G107R/I218V/I90N/K202T/L105A/L119I/N104I/N87E/Q89R/Q94S/R106L/R155S/R180L/R86G/S101N/S121R/S35A/S48A/T118I/V127L/V306I/V36M/Y140S/Y91M). The settings on record: duplicated experiments, positive binder >40%.
For assay [8], the target named is T4, HLA-C*07:01 (Homo sapiens, UniProt P10321, K90N/S123Y). The settings on record: duplicated experiments, positive binder >40%.
The target in assay [9] is T4, HLA-C*07:01. Nature of the assay: affinity assay (ED50).
The target of assay [10] is T4, HLA-C*07:01. As to the kind of experiment: off-rate assay (t1/2). The note with it: time points 0-8 h.
The target of assay [11] is T3, HLA-B*58:01.
In assay [12] the target is T3, HLA-B*58:01. The note with it: time points 0-8 h.
Setting [13] is: percent relative the binding of positive control peptide […].
[14] abbreviates: peptide titrated 10−4 to 10−9 M.

Where two headings read alike, the source gives them in different places.

In the case of FVRSSNLKF, the “Bind A*02:01” value on HLA-A*02:01 (setting [13]) was found to be 15%. Moreover, the “Bind A*24:02” value at HLA-A*24:02 (setting [13]) was determined as 81%. Further, on HLA-A*30:01 (setting [13]), the “Bind A*30:01” value was 0%. The “Bind A*30:02” value on HLA-A*30:02 [1] (setting [13]) was found to be 94%. Besides, at HLA-A*30:02 [2], the “Aff A*30:02 (ED50)” value was found to be 8E -06 M. On HLA-A*30:02 [3], the “O-rate A*30:02 (t1/2)” value stood at 1.9 h. At HLA-A*68:01 [4] (setting [13]), the “Bind A*68:01” value was determined as 45%. On HLA-A*68:01 [5], the “Aff A*68:01 (ED50)” value was determined as 8e-08 M. For the same substance, on HLA-A*68:01 [6], the “O-rate A*68:01 (t1/2)” value amounted to 0.1 h. Besides, the “Bind B*07:02” value on HLA-B*07:02 amounted to 114%. Also, on HLA-B*58:01 [7] (setting [13]), the “Bind B*58:01” value was found to be 12%. The “Bind C*07:01” value at HLA-C*07:01 [8] (setting [13]) is 76%. The “Aff C*07:01 (ED50)” value at HLA-C*07:01 [9] stood at 2E -08 M. Moreover, the “O-rate C*07:01 (t1/2)” value on HLA-C*07:01 [10] is listed as 1.4 h.

As to RAVKPT GSA, the “Bind A*02:01” value at HLA-A*02:01 (setting [13]) came to 19%. For the same substance, the “Bind A*24:02” value on HLA-A*24:02 (setting [13]) is recorded as 0%. For the same substance, on HLA-A*30:01 (setting [13]), the “Bind A*30:01” value was 4%. The “Bind A*30:02” value at HLA-A*30:02 [1] (setting [13]) was 18%. In addition, on HLA-A*68:01 [4] (setting [13]), the “Bind A*68:01” value is 10%. Besides, the “Bind B*07:02” value at HLA-B*07:02 is 84%. Moreover, the “Bind B*58:01” value on HLA-B*58:01 [7] (setting [13]) was 72%. In addition, the “Aff B*58:01 (ED50)” value on HLA-B*58:01 [11] stood at 5E -07 M. Besides, the “O-rate B*58:01 (t1/2)” value at HLA-B*58:01 [12] is 0.3 h. For the same substance, the “Bind C*07:01” value at HLA-C*07:01 [8] (setting [13]) was found to be 82%. Also, at HLA-C*07:01 [9], the “Aff C*07:01 (ED50)” value stood at 2E -07 M. For the same substance, the “O-rate C*07:01 (t1/2)” value at HLA-C*07:01 [10] worked out at 1.4 h.

In the case of LAAAWGGSG [Rv3875_39-47], the “Bind A*02:01” value at HLA-A*02:01 (percent relative the binding of positive control peptide FLPSDFFPSV) came out at 8%. Also, the “Bind A*24:02” value at HLA-A*24:02 (percent relative the binding of positive control peptide RYLKDQQLL) amounted to 4%. For the same substance, the “Bind A*30:01” value on HLA-A*30:01 (percent relative the binding of positive control peptide KTKDIVNGL) was found to be 14%. Further, on HLA-A*30:02 [1] (percent relative the binding of positive control peptide KIQNFRVYY), the “Bind A*30:02” value is given as 114%. Moreover, the “Aff A*30:02 (ED50)” value on HLA-A*30:02 [2] (setting [14]) amounted to 7e-09 M. Further, the “O-rate A*30:02 (t1/2)” value at HLA-A*30:02 [3] came to 2.1 h. In addition, the “Bind A*68:01” value at HLA-A*68:01 [4] (percent relative the binding of positive control peptide KTGGPIYKR) is 10%. At HLA-B*07:02, the “Bind B*07:02” value turned out to be 4%. The “Bind B*58:01” value on HLA-B*58:01 [7] (percent relative the binding of positive control peptide IAMESIVIW) is given as 7%. Besides, at HLA-C*07:01 [8] (percent relative the binding of positive control peptide KYFDEHYEY), the “Bind C*07:01” value was 120%. The “Aff C*07:01 (ED50)” value at HLA-C*07:01 [9] (setting [14]) turned out to be 4e-08 M. On HLA-C*07:01 [10], the “O-rate C*07:01 (t1/2)” value stood at 1.0 h.

Regarding I NT P AF E WY, the “Bind A*02:01” value at HLA-A*02:01 (setting [13]) turned out to be 0%. Besides, on HLA-A*24:02 (setting [13]), the “Bind A*24:02” value turned out to be 20%. For the same substance, at HLA-A*30:01 (setting [13]), the “Bind A*30:01” value was found to be 10%. On HLA-A*30:02 [1] (setting [13]), the “Bind A*30:02” value was found to be 132%. The “Aff A*30:02 (ED50)” value at HLA-A*30:02 [2] was determined as 7E -07 M. Besides, the “O-rate A*30:02 (t1/2)” value at HLA-A*30:02 [3] came to 1.9 h. For the same substance, on HLA-A*68:01 [4] (setting [13]), the “Bind A*68:01” value was 9%. Moreover, the “Bind B*07:02” value at HLA-B*07:02 is reported as 2%. Further, the “Bind B*58:01” value on HLA-B*58:01 [7] (setting [13]) is on record as 54%. Further, at HLA-B*58:01 [11], the “Aff B*58:01 (ED50)” value amounted to 5e-07 M. Also, on HLA-B*58:01 [12], the “O-rate B*58:01 (t1/2)” value came out at 0.5 h. In addition, the “Bind C*07:01” value at HLA-C*07:01 [8] (setting [13]) was determined as 41%. The “Aff C*07:01 (ED50)” value at HLA-C*07:01 [9] is recorded as 6E -07 M. The “O-rate C*07:01 (t1/2)” value on HLA-C*07:01 [10] is given as 1 h.

For the substance NTPAFEWYY, the “Bind A*02:01” value on HLA-A*02:01 (setting [13]) is reported as 0%. Moreover, the “Bind A*24:02” value at HLA-A*24:02 (setting [13]) amounted to 0%. Moreover, the “Bind A*30:01” value on HLA-A*30:01 (setting [13]) was 6%. Besides, the “Bind A*30:02” value at HLA-A*30:02 [1] (setting [13]) is given as 99%. Further, the “Aff A*30:02 (ED50)” value on HLA-A*30:02 [2] worked out at 2e-08 M. For the same substance, at HLA-A*30:02 [3], the “O-rate A*30:02 (t1/2)” value is 1.5 h. Besides, the “Bind A*68:01” value on HLA-A*68:01 [4] (setting [13]) came to 69%. The “Aff A*68:01 (ED50)” value at HLA-A*68:01 [5] came to 1E -07 M. Further, the “O-rate A*68:01 (t1/2)” value on HLA-A*68:01 [6] amounted to 0.2 h. Besides, the “Bind B*07:02” value at HLA-B*07:02 was 0%. Besides, at HLA-B*58:01 [7] (setting [13]), the “Bind B*58:01” value was determined as 36%. Besides, the “Bind C*07:01” value at HLA-C*07:01 [8] (setting [13]) is reported as 48%. Besides, the “Aff C*07:01 (ED50)” value at HLA-C*07:01 [9] was found to be 8e-09 M. Moreover, the “O-rate C*07:01 (t1/2)” value on HLA-C*07:01 [10] stood at 0.9 h.

For the substance LAAYHPQQF, the “Bind A*02:01” value on HLA-A*02:01 (setting [13]) turned out to be 39%. The “Bind A*24:02” value on HLA-A*24:02 (setting [13]) is reported as 52%. The “Bind A*30:01” value on HLA-A*30:01 (setting [13]) was 0%. Besides, the “Bind A*30:02” value on HLA-A*30:02 [1] (setting [13]) worked out at 66%. In addition, the “Aff A*30:02 (ED50)” value at HLA-A*30:02 [2] stood at 3e-07 M. Moreover, at HLA-A*30:02 [3], the “O-rate A*30:02 (t1/2)” value is 1.1 h. At HLA-A*68:01 [4] (setting [13]), the “Bind A*68:01” value was 37%. Also, the “Bind B*07:02” value at HLA-B*07:02 was 74%. Further, the “Bind B*58:01” value on HLA-B*58:01 [7] (setting [13]) is on record as 13%. The “Bind C*07:01” value at HLA-C*07:01 [8] (setting [13]) was found to be 84%. On HLA-C*07:01 [9], the “Aff C*07:01 (ED50)” value is on record as 1E -07 M. On HLA-C*07:01 [10], the “O-rate C*07:01 (t1/2)” value amounted to 0.4 h.
